{"source": "BindingDB's records for doi:10.7270/Q2668BMS", "about": "(Burnham Center For Chemical Genomics, 2010)", "biological_target": "T1, Amyloid-beta A4 precursor protein-binding family A member 1 (Rattus norvegicus, UniProt O35430)", "T1 sequence (O35430 whole entry)": "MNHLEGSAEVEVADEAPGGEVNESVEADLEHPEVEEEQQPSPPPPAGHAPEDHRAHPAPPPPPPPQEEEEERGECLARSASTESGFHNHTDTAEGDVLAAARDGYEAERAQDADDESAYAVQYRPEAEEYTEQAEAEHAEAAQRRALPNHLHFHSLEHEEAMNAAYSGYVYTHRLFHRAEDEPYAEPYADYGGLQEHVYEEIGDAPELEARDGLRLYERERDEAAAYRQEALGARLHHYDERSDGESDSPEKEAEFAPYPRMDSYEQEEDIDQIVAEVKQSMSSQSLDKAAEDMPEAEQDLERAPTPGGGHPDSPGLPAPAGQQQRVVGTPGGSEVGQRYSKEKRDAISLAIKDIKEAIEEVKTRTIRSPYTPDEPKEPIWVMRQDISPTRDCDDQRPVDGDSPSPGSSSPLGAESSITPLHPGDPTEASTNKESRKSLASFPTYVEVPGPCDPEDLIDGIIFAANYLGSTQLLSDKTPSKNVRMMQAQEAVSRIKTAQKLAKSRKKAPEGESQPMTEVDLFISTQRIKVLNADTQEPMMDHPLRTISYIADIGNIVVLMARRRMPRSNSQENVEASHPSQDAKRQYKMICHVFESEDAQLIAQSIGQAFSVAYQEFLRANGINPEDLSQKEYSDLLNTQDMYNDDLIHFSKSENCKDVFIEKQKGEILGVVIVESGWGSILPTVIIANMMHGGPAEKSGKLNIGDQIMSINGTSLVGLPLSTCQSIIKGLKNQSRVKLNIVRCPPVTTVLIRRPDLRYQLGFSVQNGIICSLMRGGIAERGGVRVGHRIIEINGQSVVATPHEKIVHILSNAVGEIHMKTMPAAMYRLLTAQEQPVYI", "experiment": "disruptors of Mint-PDZ/N-type channel peptide interaction – biochemical, HTRF, set 2, SAR follow-up (AID 434980)", "note": "Several values for one entry are separate records, joined by “and”; a condition that tells them apart may be missing. Equal entries are not always repeated."}
{"smiles": "Cc1ccc(-n2c(O)c3c(c2O)C2(C)C=CC3(C)O2)cc1", "values": [{"measurement": "IC50", "result": "> 56.8", "unit": "µM"}]}
{"smiles": "CC(=O)Oc1ccc(-n2c(O)c3c(c2O)C2(C)C=CC3(C)O2)cc1", "note": "[MLS000107813]", "values": [{"measurement": "IC50", "result": 6.39, "unit": "µM"}]}
{"smiles": "CC(=O)Oc1cccc(-n2c(O)c3c(c2O)C2(C)C=CC3(C)O2)c1", "values": [{"measurement": "IC50", "result": "9.86 µM and 9.63 µM"}]}
{"smiles": "CC12C=CC(C)(O1)c1c2c(O)n(-c2ccc(Cl)cc2)c1O", "values": [{"measurement": "IC50", "result": "> 56.8", "unit": "µM"}]}
{"smiles": "COC(=O)c1cc(-n2c(O)c3c(c2O)C2(C)C=CC3(C)O2)ccc1Cl", "note": "[MLS000107828]", "values": [{"measurement": "IC50", "result": "> 56.8", "unit": "µM"}]}
{"smiles": "CCCc1ccc(CC2=C(C(=O)OCC)C(=O)c3ccccc3C2=O)cc1", "note": "[MLS000571357]", "values": [{"measurement": "IC50", "result": 5.7, "unit": "µM"}]}
{"smiles": "Cc1cccc(-n2c(O)c3c(c2O)C2(C)C=CC3(C)O2)c1", "note": "[4,7-dimethyl-2-(3-methylphenyl)-3a,7a-dihydro-octahydro-1H-4,7-epoxyisoindole-1,3-dione]", "values": [{"measurement": "IC50", "result": 8.93, "unit": "µM"}]}
{"smiles": "CC(=O)Oc1ccc(-n2c(O)c3c(c2O)C2C=CC3O2)cc1", "note": "[[4-(1,3-dioxo-3a,4,7,7a-tetrahydro-octahydro-1H-4,7-epoxyisoindol-2-yl)phenyl] acetate]", "values": [{"measurement": "IC50", "result": 18.8, "unit": "µM"}]}
{"smiles": "CC12C=CC(C)(O1)c1c2c(O)n(-c2ccc3c(c2)OCO3)c1O", "values": [{"measurement": "IC50", "result": "> 56.8", "unit": "µM"}]}
{"smiles": "CC12C=CC(C)(O1)c1c2c(O)n(-c2ccc(F)cc2)c1O", "note": "[2-(4-fluorophenyl)-4,7-dimethyl-3a,7a-dihydro-octahydro-1H-4,7-epoxyisoindole-1,3-dione]", "values": [{"measurement": "IC50", "result": 8.89, "unit": "µM"}]}
{"smiles": "CC12C=CC(C)(O1)c1c2c(O)n(-c2ccccc2)c1O", "note": "[4,7-dimethyl-2-phenyl-3a,7a-dihydro-octahydro-1H-4,7-epoxyisoindole-1,3-dione]", "values": [{"measurement": "IC50", "result": 10.5, "unit": "µM"}]}
